Results taken from ChEMBL document CHEMBL1123973, “Renin inhibitors containing hydrophilic groups. Tetrapeptides with enhanced aqueous solubility and nanomolar potency” (J Med Chem, 1988).
≈ marks a conversion by molar mass, not a printed value. *1 amine or outer side, *2 acyl side, *3 side chain or, on linkers, in order; H or OH if unused. Where a SMILES comes first, the peptide text is derived from it. [ ]: non-standard residue; d: D form. The star is where a group is joined. ξ: configuration not given here. Sta = CC(C)C[C@H](N)[C@@H](O)CC(=O)O; X1 = CC(C)CC(N[*:1])C(O)CC(=O)[*:2]; ξPhg = NC(C(=O)O)c1ccccc1; Boc = CC(C)(C)OC(=O)*; NHBn = c1ccc(CN*)cc1

Key:
physchem [1] = settings: phosphate buffer, pH 7.4, S
Description: Solubility (phosphate buffer, pH 7.4)

[2] = Partition coefficient (logD) (octanol/citric acid-phosphate buffer)
physchem [3] = settings: S
[4] = tested on: Renin (Canis lupus familiaris); test: Concentration required for 50% inhibition of renin at 10e-6 M of the compound
Renin (Sus scrofa) = test: Inhibition of porcine kidney renin
Renin = target: T1, Renin (Homo sapiens, UniProt P00797); test: Concentration required for 50% inhibition of human plasma renin; assay type: cell-free
T1 sequence (P00797 whole entry): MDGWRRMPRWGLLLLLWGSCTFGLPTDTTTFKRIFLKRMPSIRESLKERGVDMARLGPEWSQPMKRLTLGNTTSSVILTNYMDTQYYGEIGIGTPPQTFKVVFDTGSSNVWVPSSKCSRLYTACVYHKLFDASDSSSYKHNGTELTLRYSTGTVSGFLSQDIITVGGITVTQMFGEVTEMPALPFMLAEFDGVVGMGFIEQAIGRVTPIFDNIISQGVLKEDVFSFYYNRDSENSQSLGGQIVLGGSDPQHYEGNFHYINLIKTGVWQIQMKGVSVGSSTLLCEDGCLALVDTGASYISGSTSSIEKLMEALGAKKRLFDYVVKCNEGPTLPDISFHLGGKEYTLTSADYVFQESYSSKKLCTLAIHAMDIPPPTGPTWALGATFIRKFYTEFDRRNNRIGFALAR

[5] = target: Renin (Canis lupus familiaris); test: Inhibition of renin
Sus scrofa [6] = species: Sus scrofa; test: Concentration required for 50% inhibition of porcine kidney renin at 10e-7 nM of the compound
Renin (Homo sapiens) = target: T2, Renin (Homo sapiens) (UniProt P00797); test: Concentration required for 50% inhibition of human plasma renin at 10e-6 nM of the compound; assay type: cell-free
T2 sequence (whole entry): T1 sequence (P00797 whole entry)

Sus scrofa [7] = species: Sus scrofa; test: Concentration required for 50% inhibition of porcine kidney renin at 10e-7 (nM) concentration
[8] = tested on: Renin (Canis lupus familiaris); test: Concentration required for 50% inhibition of renin at 10e-6 nM concentration
Sus scrofa [9] = species: Sus scrofa; test: Concentration required for 50% inhibition of porcine kidney renin at 10e-7 nM concentration
[10] = buffer, pH 7.4
Description: Solubility (phosphate buffer, pH 7.4)

[11] = tested on: Renin (Canis lupus familiaris); test: Concentration required for 50% inhibition of renin; 10e-6 (nM)
Sus scrofa [12] = species: Sus scrofa; test: Concentration required for 50% inhibition of porcine kidney renin at 10e-6 (nM) concentration
Sus scrofa [13] = species: Sus scrofa; test: Concentration required for 50% inhibition of porcine kidney renin; assay type: functional

CC(C)CC(NC(=O)[C@H](Cc1c[nH]cn1)NC(=O)[C@H](Cc1ccccc1)NC(=O)OC(C)(C)C)C(O)CC(=O)N[C@@H](CC(C)C)C(=O)NCCN=C(N)N (some centres not stated)
solubility (physchem [1]): 11000 µM (≈ 8330 µg/mL)
logD [2]: 0.322
solubility (physchem [3]): 24000 µM (≈ 18200 µg/mL)
inhibition [4]: 32%
IC50 (Renin (Sus scrofa)): 0.71 µM
IC50 (Renin): 0.064 µM

CC(C)CC(NC(=O)[C@H](Cc1c[nH]cn1)NC(=O)[C@H](Cc1ccccc1)NC(=O)OC(C)(C)C)C(O)CC(=O)N[C@@H](CC(C)C)C(=O)N1CCN(Cc2ccccc2)CC1 (some centres not stated)
solubility (physchem [1]): < 10 µM
IC50 [5]: 0.31 µM
logD [2]: > 2
solubility (physchem [3]): < 10 µM
IC50 (Renin (Sus scrofa)): 0.28 µM
IC50 (Renin): 0.127 µM

CC(C)C[C@H](NC(=O)C[C@H](O)[C@H](CC(C)C)NC(=O)[C@H](Cc1c[nH]cn1)NC(=O)[C@H](Cc1ccccc1)NC(=O)OC(C)(C)C)C(=O)N[C@@H](Cc1ccccc1)C(N)=O (Boc-FH[Sta]LF-NH2)
solubility (physchem [1]): < 20 µM
logD [2]: > 2
solubility (physchem [3]): < 20 µM

CC(C)CC(NC(=O)[C@H](Cc1cnc[nH]1)NC(=O)[C@H](Cc1ccccc1)NC(=O)OC(C)(C)C)C(O)CC(=O)N[C@@H](CC(C)C)C(=O)NCc1cc[n+]([O-])cc1 (some centres not stated)
solubility (physchem [1]): 4200 µM (≈ 3270 µg/mL)
solubility (physchem [3]): 6500 µM (≈ 5060 µg/mL)

CC(C)C[C@H](NC(=O)CC(O)C(CC1CCCCC1)NC(=O)[C@H](Cc1cnc[nH]1)NC(=O)[C@H](Cc1ccccc1)NC(=O)OC(C)(C)C)C(=O)NCc1ccncc1 (some centres not stated)
solubility (physchem [1]): < 10 µM
logD [2]: > 2

CC(C)C[C@H](NC(=O)C[C@H](O)[C@H](CC(C)C)NC(=O)[C@H](Cc1c[nH]cn1)NC(=O)[C@H](Cc1ccccc1)NC(=O)OC(C)(C)C)C(=O)NCc1ccccc1 (Boc-FH[Sta]L-NHBn)
solubility (physchem [1]): < 10 µM
logD [2]: > 2
solubility (physchem [3]): < 10 µM

CC(C)CC(NC(=O)[C@H](Cc1cnc[nH]1)NC(=O)[C@H](Cc1ccccc1)NC(=O)OC(C)(C)C)C(O)CC(=O)N[C@@H](CC(C)C)C(=O)NCc1cccc(OCC(=O)O)c1 (some centres not stated)
solubility (physchem [1]): 1800 µM (≈ 1500 µg/mL)
logD [2]: > 2
solubility (physchem [3]): 270 µM (≈ 226 µg/mL)

CC(C)CC(NC(=O)[C@H](Cc1c[nH]cn1)NC(=O)[C@H](Cc1ccccc1)NC(=O)OC(C)(C)C)C(O)CC(=O)N[C@@H](CC(C)C)C(=O)NCc1ccncc1 (some centres not stated)
solubility (physchem [1]): 340 µM (≈ 259 µg/mL)
logD [2]: > 2
solubility (physchem [3]): 440 µM (≈ 336 µg/mL)

CC(C)CC(NC(=O)[C@H](Cc1c[nH]cn1)NC(=O)[C@H](Cc1ccccc1)NC(=O)OC(C)(C)C)C(O)CC(=O)N[C@@H](CC(C)C)C(=O)NCC(N)c1ccccn1 (some centres not stated)
solubility (physchem [1]): 400 µM (≈ 317 µg/mL)
logD [2]: > 2
solubility (physchem [3]): 890 µM (≈ 705 µg/mL)

CC(C)C[C@H](NC(=O)CC(O)C(CC1CCCCC1)NC(=O)[C@H](Cc1cnc[nH]1)NC(=O)[C@H](Cc1ccccc1)NC(=O)OC(C)(C)C)C(=O)NCc1cccc(OCC(=O)O)c1 (some centres not stated)
solubility (physchem [1]): 210 µM (≈ 184 µg/mL)
logD [2]: > 2
solubility (physchem [3]): 30 µM (≈ 26.3 µg/mL)

CC(C)CC(NC(=O)[C@H](Cc1cnc[nH]1)NC(=O)[C@H](Cc1ccccc1)NC(=O)OC(C)(C)C)C(O)CC(=O)N[C@@H](CC(C)C)C(=O)NCc1cccc(CN=C(N)N)c1 (some centres not stated)
solubility (physchem [1]): 930 µM (≈ 775 µg/mL)
logD [2]: 1.03
solubility (physchem [3]): 3000 µM (≈ 2500 µg/mL)

CC(C)CC(NC(=O)[C@H](Cc1c[nH]cn1)NC(=O)[C@H](Cc1ccccc1)NC(=O)OC(C)(C)C)C(O)CC(=O)N[C@@H](CC(C)C)C(=O)NCCC(N)C(=O)O (stereo in doubt; 16)
inhibition (Sus scrofa [6]): 0%
inhibition [4]: 15%
inhibition (Renin (Homo sapiens)): 25%

CC(C)CC(NC(=O)[C@H](Cc1c[nH]cn1)NC(=O)[C@H](Cc1ccccc1)NC(=O)OC(C)(C)C)C(O)CC(=O)N[C@@H](CC(C)C)C(=O)NCc1cc[n+]([O-])cc1 (some centres not stated)
inhibition (Sus scrofa [7]): 29%

CC(C)CC(NC(=O)[C@H](Cc1c[nH]cn1)NC(=O)[C@H](Cc1ccccc1)NC(=O)OC(C)(C)C)C(O)CC(=O)N[C@@H](CC(C)C)C(=O)NCc1ccccn1 (some centres not stated)
solubility (physchem [1]): 180 µM (≈ 137 µg/mL)
logD [2]: > 2
solubility (physchem [3]): 380 µM (≈ 290 µg/mL)

CC(C)CC(NC(=O)[C@H](Cc1cnc[nH]1)NC(=O)[C@H](Cc1ccccc1)NC(=O)OC(C)(C)C)C(O)CC(=O)N[C@@H](CC(C)C)C(=O)NCCN (some centres not stated)
solubility (physchem [1]): 4900 µM (≈ 3500 µg/mL)
logD [2]: 0.949
solubility (physchem [3]): 2600 µM (≈ 1860 µg/mL)
IC50 (Renin): 0.14 µM

CC(C)CC(NC(=O)[C@H](Cc1c[nH]cn1)NC(=O)[C@H](Cc1ccccc1)NC(=O)OC(C)(C)C)C(O)CC(=O)N[C@@H](CC(C)C)C(=O)NC(Cc1cccc(CN)c1)C(=O)O (some centres not stated)
solubility (physchem [1]): 1500 µM (≈ 1270 µg/mL)
inhibition [8]: 18%
logD [2]: 1.83
inhibition (Sus scrofa [9]): 0%
solubility (physchem [3]): 390 µM (≈ 331 µg/mL)
IC50 (Renin): 0.88 µM

CC(C)CC(NC(=O)[C@H](Cc1c[nH]cn1)NC(=O)[C@H](Cc1ccccc1)NC(=O)OC(C)(C)C)C(O)CC(=O)N[C@@H](CC(C)C)C(=O)NC(C(=O)O)c1ccccc1 (some centres not stated) (Boc-FH[X1]L[ξPhg]-OH)
solubility (physchem [1]): 2200 µM (≈ 1770 µg/mL)
logD [2]: 1.22
inhibition (Sus scrofa [6]): 0%
solubility (physchem [3]): 740 µM (≈ 596 µg/mL)
inhibition [4]: 45%
inhibition (Renin (Homo sapiens)): 44%

CC(C)CC(NC(=O)[C@H](Cc1c[nH]cn1)NC(=O)[C@H](Cc1ccccc1)NC(=O)OC(C)(C)C)C(O)CC(=O)N[C@@H](CC(C)C)C(=O)NCCC(N)C(=O)O (stereo in doubt; 17) [listing 1 of 2 here]
logD [2]: 1.03
solubility (physchem [3]): 3400 µM (≈ 2630 µg/mL)
S [10]: 1400 µM

CC(C)CC(NC(=O)[C@H](Cc1c[nH]cn1)NC(=O)[C@H](Cc1ccccc1)NC(=O)OC(C)(C)C)C(O)CC(=O)N[C@@H](CC(C)C)C(=O)NCCC(N)C(=O)O (stereo in doubt; 17) [listing 2 of 2 here]
inhibition [11]: 22%
inhibition (Sus scrofa [12]): 0%
inhibition (Renin (Homo sapiens)): 8%

CC(C)CC(NC(=O)[C@H](Cc1c[nH]cn1)NC(=O)[C@H](Cc1ccccc1)NC(=O)OC(C)(C)C)C(O)CC(=O)N[C@@H](CC(C)C)C(=O)NCCN (some centres not stated)
inhibition [11]: 32%
inhibition (Sus scrofa [12]): 31%

CC(C)C[C@H](NC(=O)CC(O)C(CC1CCCCC1)NC(=O)[C@H](Cc1c[nH]cn1)NC(=O)[C@H](Cc1ccccc1)NC(=O)OC(C)(C)C)C(=O)NCc1cccc(CN=C(N)N)c1 (some centres not stated)
solubility (physchem [1]): 40 µM (≈ 34.9 µg/mL)
logD [2]: > 2
solubility (physchem [3]): > 250 µM

CC(C)CC(NC(=O)[C@H](Cc1cnc[nH]1)NC(=O)[C@H](Cc1ccccc1)NC(=O)OC(C)(C)C)C(O)CC(=O)N[C@@H](CC(C)C)C(=O)NCCCN(CCO)CCO (some centres not stated)
solubility (physchem [1]): 4300 µM (≈ 3510 µg/mL)
IC50 (Sus scrofa [13]): 0.9 µM
logD [2]: 1.4
solubility (physchem [3]): 960 µM (≈ 784 µg/mL)
IC50 (Renin): 0.17 µM

CC(C)CC(NC(=O)[C@H](Cc1cnc[nH]1)NC(=O)[C@H](Cc1ccccc1)NC(=O)OC(C)(C)C)C(O)CC(=O)N[C@@H](CC(C)C)C(=O)NCc1cccc(CN)c1 (some centres not stated)
solubility (physchem [1]): 1400 µM (≈ 1110 µg/mL)
IC50 [5]: 0.11 µM
logD [2]: 1.89
solubility (physchem [3]): 880 µM (≈ 696 µg/mL)
IC50 (Renin (Sus scrofa)): 0.054 µM
IC50 (Renin): 0.009 µM
